Test results taken from the NIST ThermoML archive (doi:10.1016/j.jct.2008.10.010).

Assay: molar heat capacity at constant pressure; xn = mol fraction of the nth substance listed
Details: 101.3 kPa, Liquid, Small sample (50 mg) DSC

CCC(C)(C)O [2-methylbutan-2-ol] + CCCCCCC
Details | molar heat capacity at constant pressure [J/K/mol]
284.14 K, x1 = 0.0061 | 220.41
284.14 K, x1 = 0.0249 | 226.02
284.14 K, x1 = 0.0494 | 229.4
284.14 K, x1 = 0.1999 | 234.97
284.14 K, x1 = 0.4051 | 235.79
284.14 K, x1 = 0.5981 | 234.72
284.14 K, x1 = 0.7015 | 233.37
284.14 K, x1 = 0.9139 | 231.9
284.14 K, x1 = 0.9609 | 232.4
284.16 K, x1 = 0.1 | 232.58
284.16 K, x1 = 0.1547 | 234.25
284.16 K, x1 = 0.2993 | 235.98
284.16 K, x1 = 0.4986 | 235.43
284.18 K, x1 = 0.8023 | 232.34
285.15 K, x1 = 0.0061 | 220.65
285.15 K, x1 = 0.0249 | 226.27
285.15 K, x1 = 0.0494 | 229.86
285.15 K, x1 = 0.1 | 233.16
285.15 K, x1 = 0.1547 | 234.99
285.15 K, x1 = 0.1999 | 235.77
285.15 K, x1 = 0.2993 | 236.86
285.15 K, x1 = 0.4051 | 236.78
285.15 K, x1 = 0.4986 | 236.52
285.15 K, x1 = 0.5981 | 235.88
285.15 K, x1 = 0.7015 | 234.58
285.15 K, x1 = 0.8023 | 233.57
285.15 K, x1 = 0.9609 | 233.54
285.51 K, x1 = 0.9139 | 233.61
286.16 K, x1 = 0.0061 | 220.9
286.16 K, x1 = 0.0249 | 226.64
286.16 K, x1 = 0.0494 | 230.34
286.16 K, x1 = 0.1 | 233.84
286.16 K, x1 = 0.1547 | 235.78
286.16 K, x1 = 0.1999 | 236.66
286.16 K, x1 = 0.2993 | 237.91
286.16 K, x1 = 0.4051 | 237.9
286.16 K, x1 = 0.4986 | 237.63
286.16 K, x1 = 0.5981 | 237.03
286.16 K, x1 = 0.7015 | 235.81
286.16 K, x1 = 0.8023 | 234.67
286.16 K, x1 = 0.9139 | 234.27
286.16 K, x1 = 0.9609 | 234.56
287.14 K, x1 = 0.0061 | 221.16
287.14 K, x1 = 0.0249 | 226.92
287.14 K, x1 = 0.0494 | 230.72
287.14 K, x1 = 0.1 | 234.39
287.14 K, x1 = 0.1547 | 236.4
287.14 K, x1 = 0.1999 | 237.42
287.14 K, x1 = 0.2993 | 238.78
287.14 K, x1 = 0.4051 | 238.87
287.14 K, x1 = 0.4986 | 238.65
287.14 K, x1 = 0.5981 | 238.11
287.14 K, x1 = 0.7015 | 236.94
287.14 K, x1 = 0.8023 | 235.73
287.14 K, x1 = 0.9139 | 235.37
287.14 K, x1 = 0.9609 | 235.45
288.15 K, x1 = 0.0061 | 221.55
288.15 K, x1 = 0.0249 | 227.34
288.15 K, x1 = 0.0494 | 231.29
288.15 K, x1 = 0.1 | 235.13
288.15 K, x1 = 0.1547 | 237.25
288.15 K, x1 = 0.1999 | 238.28
288.15 K, x1 = 0.2993 | 239.83
288.15 K, x1 = 0.4051 | 240.03
288.15 K, x1 = 0.4986 | 239.84
288.15 K, x1 = 0.5981 | 239.38
288.15 K, x1 = 0.7015 | 238.26
288.15 K, x1 = 0.8023 | 237.01
288.15 K, x1 = 0.9139 | 236.54
288.15 K, x1 = 0.9609 | 236.62
289.14 K, x1 = 0.0061 | 221.82
289.14 K, x1 = 0.0249 | 227.63
289.14 K, x1 = 0.0494 | 231.74
289.14 K, x1 = 0.1 | 235.73
289.14 K, x1 = 0.1547 | 237.99
289.14 K, x1 = 0.1999 | 239.11
289.14 K, x1 = 0.2993 | 240.71
289.14 K, x1 = 0.4051 | 241.03
289.14 K, x1 = 0.4986 | 240.91
289.14 K, x1 = 0.5981 | 240.51
289.14 K, x1 = 0.7015 | 239.53
289.14 K, x1 = 0.8023 | 238.27
289.14 K, x1 = 0.9139 | 237.62
289.14 K, x1 = 0.9609 | 237.61
290.14 K, x1 = 0.0061 | 222.02
290.14 K, x1 = 0.0249 | 227.88
290.14 K, x1 = 0.0494 | 232.1
290.14 K, x1 = 0.1 | 236.25
290.14 K, x1 = 0.1547 | 238.66
290.14 K, x1 = 0.1999 | 239.89
290.14 K, x1 = 0.2993 | 241.62
290.14 K, x1 = 0.4051 | 242.04
290.14 K, x1 = 0.4986 | 241.98
290.14 K, x1 = 0.5981 | 241.64
290.14 K, x1 = 0.7015 | 240.72
290.14 K, x1 = 0.8023 | 239.53
290.14 K, x1 = 0.9139 | 238.75
290.14 K, x1 = 0.9609 | 238.68
291.15 K, x1 = 0.0061 | 222.4
291.15 K, x1 = 0.0249 | 228.24
291.15 K, x1 = 0.0494 | 232.63
291.15 K, x1 = 0.1 | 236.91
291.15 K, x1 = 0.1547 | 239.46
291.15 K, x1 = 0.1999 | 240.73
291.15 K, x1 = 0.2993 | 242.6
291.15 K, x1 = 0.4051 | 243.13
291.15 K, x1 = 0.4986 | 243.16
291.15 K, x1 = 0.5981 | 242.84
291.15 K, x1 = 0.7015 | 241.97
291.15 K, x1 = 0.8023 | 240.74
291.15 K, x1 = 0.9139 | 239.92
291.15 K, x1 = 0.9609 | 239.8
292.14 K, x1 = 0.0061 | 222.7
292.14 K, x1 = 0.0494 | 233.02
292.14 K, x1 = 0.1 | 237.52
292.14 K, x1 = 0.1547 | 240.13
292.14 K, x1 = 0.1999 | 241.49
292.14 K, x1 = 0.2993 | 243.55
292.14 K, x1 = 0.4051 | 244.19
292.14 K, x1 = 0.4986 | 244.28
292.14 K, x1 = 0.5981 | 243.93
292.14 K, x1 = 0.7015 | 243.17
292.14 K, x1 = 0.8023 | 241.93
292.14 K, x1 = 0.9139 | 241.07
